Where two headings read alike, the source gives them in different places.
Columns and labels:
[1] = system: low-density lipoprotein cholesterol (LDL-C); assay: Phase 2 study of obicetrapib and ezetimibe in mild dyslipidaemia: LDL-C by Friedewald formula; type: in vivo, human
Source text: (§1) Study drugs will be administered by the participant orally and once daily on Days 1 through 57. Study drugs should be administered at approximately the same time each morning, with food. On days with visits scheduled, study drugs should be administered with food following all fasted blood samples. If a participant forgets to take study drug on a given day, they should take the next dose as normal and should not take a double dose to make up for the forgotten dose.
(§2) Up to 2 weeks after the Screening Visit, participants will return to the site on Day 1 (Visit 2) to be randomized and begin treatment. Approximately 100 eligible participants (25 participants per treatment group) will be randomized in a 1:1:1:1 ratio to 1 of the following treatment groups: • Combination therapy: 5 mg obicetrapib+10 mg ezetimibe; • Obicetrapib monotherapy: 5 mg obicetrapib+placebo ezetimibe; • Ezetimibe monotherapy: placebo obicetrapib+10 mg ezetimibe; or • Placebo: placebo obicetrapib+placebo ezetimibe.
LDL-C level was collected using the following 2 approaches: • 1. At each scheduled visit, LDL-C level was calculated using the Friedewald formula; and • 2. In addition, at baseline (Day 1) and at the end of the 8-week Treatment Period (Day 57), LDL-C was measured for all participants by preparative ultracentrifugation (PUC). Primary Efficacy Endpoint Primary analysis
The primary efficacy analysis of the percent change from Day 1 to Day 57 in LDL-C was performed using a mixed model for repeated measures (MMRM) approach. The analysis included fixed effects for treatment, visit, and treatment-by-visit interaction, along with a covariate of the baseline value as a continuous covariate. Randomization was stratified by categories of LDL-C value (<3.5 mmol/L [<135 mg/dL] or >3.5 mmol/L [≥135 mg/dL]) only to ensure similar distribution of LDL-C across all treatment groups; however, the MMRM model included the original scale of the LDL-C value as a continuous covariate. The Restricted Maximum Likelihood estimation approach was used with an unstructured covariance matrix. The least squares (LS) means, standard errors, and 2-sided 95% confidence intervals (CIs) for each treatment group, for the pairwise comparisons of the combination therapy, obicetrapib monotherapy, and ezetimibe monotherapy to placebo, and for the pairwise comparisons of combination therapy and obicetrapib monotherapy versus ezetimibe monotherapy are provided. The treatment comparison was performed using a 2-sided test at the α=0.05 level of significance.
Similar MMRM models were used for the exploratory efficacy endpoints. The proportion of participants at Day 57 that achieved LDL-C<2.6 mmol/L (<100 mg/dL), LDL-C<1.8 mmol/L (<70 mg/dL), and LDL-C<1.3 mmol/L (<50 mg/dL) were examined through Logistic Regression Models for binary variables with covariates of the treatment groups and the baseline variable.
This study was a placebo-controlled, double-blind, randomized Phase 2 study in participants with mild dyslipidemia to evaluate the efficacy, safety, and tolerability of obicetrapib and ezetimibe combination therapy. The primary efficacy endpoint was percent change from Day 1 to Day 57 in LDL-C for the obicetrapib 5 mg+ezetimibe 10 mg group compared to the placebo group.

apolipoprotein B (ApoB) = assay: Phase 2 study of obicetrapib and ezetimibe in mild dyslipidaemia: ApoB; type: in vivo, human; details: mITT population, oral once daily
Source text: as §1, §2
Similar MMRM models were developed to examine the percent change from Day 1 to Day 57 in LDL-C (for other pairwise treatment group comparisons beside the analysis specified for the primary efficacy endpoint, using the Friedewald formula) or ApoB. In order to maintain the overall Type 1 error rate, the secondary efficacy endpoints were tested sequentially at the 0.05 significance level according to the pre-specified order of hierarchy. This applied to the following analyses: • Percent change from Day 1 to Day 57 in LDL-C for the obicetrapib monotherapy group compared to the placebo group; • Percent change from Day 1 to Day 57 in ApoB for the combination therapy group compared to the placebo group; • Percent change from Day 1 to Day 57 in ApoB for the obicetrapib monotherapy group compared to the placebo group; • Percent change from Day 1 to Day 57 in LDL-C for combination therapy group compared to the ezetimibe monotherapy group; • Percent change from Day 1 to Day 57 in LDL-C for the obicetrapib monotherapy group compared to the ezetimibe monotherapy group; • Percent change from Day 1 to Day 57 in LDL-C, for the ezetimibe monotherapy group compared to the placebo group; and • Percent change from Day 1 to Day 57 in ApoB for the combination therapy group compared to the ezetimibe monotherapy group.

[2] = Phase 2 study: safety and tolerability (adverse events); type: in vivo, human
Source text: The Safety Population included all participants who received at least 1 dose of any study drug. Treatment classification was based on the actual treatment received. The Safety Population was the primary population used for the safety analyses.
The Safety Population was the primary population for the safety analyses. All safety endpoints are summarized descriptively. No statistical inference was applied to the safety endpoints.
AEs were categorized by primary system organ class (SOC) and preferred term (PT) as coded using the Medical Dictionary for Regulatory Activities (version 23.0) category designations. Summaries of AEs, including the count and percentage of participants who experienced an AE, are provided.
An overview of treatment-emergent adverse events (TEAEs) is provided, including counts and percentages of participants (and event counts).
Listings are presented specifically for TEAEs, treatment-emergent serious adverse events (TESAEs), and TEAEs leading to discontinuation of study drug.

LDL-C = details: cited from earlier work
[3] = cited from earlier work; for Phase III clinical trial outcome (in words): anacetrapib: 30.000 patient REVEAL trial
HDL-C = details: cited from earlier work
[4] = mITT population, mild dyslipidaemia, oral once daily, Day 57
[5] = mITT population, oral once daily, baseline to Day 57
[6] = torcetrapib dosed at 60 mg, Phase III clinical trials

O=C1[C@H](CC[C@H](O)c2ccc(F)cc2)[C@@H](c2ccc(O)cc2)N1c1ccc(F)cc1 [Ezetimibe 10 mg, (3R,4S)-1-(4-fluorophenyl)-3-[(3 S)-3-(4-fluorophenyl)-3-hydroxypropyl]-4-(4-hydroxyphenyl)azetidin-2-one]
Number of participants that achieved LDL-C<70 mg/dL by Friedewald formula ([1]; Day 57): 1 participants
Number of participants that achieved LDL-C<100 mg/dL by Friedewald formula ([1]; Day 57): 8 participants
Percentage of participants that achieved LDL-C<70 mg/dL by Friedewald formula ([1]; Day 57): 3.6%
Percentage of participants that achieved LDL-C<100 mg/dL by Friedewald formula ([1]; Day 57): 28.6%
LDL-C by Friedewald formula at Day 57, mean [1, 4]: 109.1 mg/dL
LDL-C by Friedewald formula at Day 57, median [1, 4]: 109.0 mg/dL
Change from baseline to Day 57 in LDL-C by Friedewald formula, mean [1, 5]: -18.0 mg/dL
Change from baseline to Day 57 in LDL-C by Friedewald formula, median [1, 5]: -19.0 mg/dL
Percent change from baseline to Day 57 in LDL-C by Friedewald formula, mean [1, 5]: −12.69%
Percent change from baseline to Day 57 in LDL-C by Friedewald formula, median [1, 5]: −14.80%
ApoB at Day 57, mean (apolipoprotein B (ApoB); mild dyslipidaemia, Day 57): 94.8 mg/dL
ApoB at Day 57, median (apolipoprotein B (ApoB); mild dyslipidaemia, Day 57): 94.0 mg/dL
Change from baseline to Day 57 in ApoB, mean (apolipoprotein B (ApoB); baseline to Day 57): -9.5 mg/dL
Change from baseline to Day 57 in ApoB, median (apolipoprotein B (ApoB); baseline to Day 57): -8.0 mg/dL
Percent change from baseline to Day 57 in ApoB, mean (apolipoprotein B (ApoB); baseline to Day 57): −8.78%
Percent change from baseline to Day 57 in ApoB, median (apolipoprotein B (ApoB); baseline to Day 57): −8.90%
Participants who experienced at least 1 TEAE, number ([2]; Safety Population): 8 participants
Participants who experienced at least 1 TEAE, percentage ([2]; Safety Population): 28.6%
Participants who experienced at least 1 study drug-related TEAE, number ([2]; Safety Population): 3 participants
Participants who experienced at least 1 study drug-related TEAE, percentage ([2]; Safety Population): 10.7%
Participants with a TEAE with a maximum severity of moderate, number ([2]; Safety Population): 4 participants
Participants with a TEAE with a maximum severity of moderate, percentage ([2]; Safety Population): 14.3%
Participants with at least 1 TEAE that led to discontinuation of the study drug, number ([2]; Safety Population): 1 participants
Participants with at least 1 TEAE that led to discontinuation of the study drug, percentage ([2]; Safety Population): 3.6%
Participants who experienced a TESAE / SAE, number ([2]; hyperventilation and multiple fractures, both rated not related to the study drug): Two
Participants who experienced a TESAE, percentage of participants overall ([2]; percentage of participants overall): 1.8%
Participants who experienced a severe TEAE, number ([2]; severe TEAE of multiple fractures): One
Participants who experienced a severe TEAE, percentage of all participants ([2]; severe TEAE of multiple fractures, percentage of all participants): 0.9%
Reduction of LDL-C levels when compared to placebo (LDL-C; ezetimibe mono-therapy, patients with hypercholesterolemia): less than 20%

Cc1cc(C)c2c(c1)[C@@H](N(Cc1cc(C(F)(F)F)cc(C(F)(F)F)c1)c1nnn(C)n1)CCCN2C[C@H]1CC[C@H](C(=O)O)CC1 [Evacetrapib]
Phase III clinical trial outcome (in words) [3]: failed to pass a futility interim analysis

CCC(CC)CC1(C(=O)Nc2ccccc2SC(=O)C(C)C)CCCCC1 [Dalcetrapib]
Effects on LDL-C concentrations (in words) (LDL-C; dalcetrapib clinical trials): minimal effects
Increase of HDL-C (HDL-C; dalcetrapib clinical trials): 30-40%

CCOC(=O)N1c2ccc(C(F)(F)F)cc2[C@@H](N(Cc2cc(C(F)(F)F)cc(C(F)(F)F)c2)C(=O)OC)C[C@H]1CC [Torcetrapib]
Decrease of LDL-C (LDL-C; [6]): 25%
Increase of HDL-C (HDL-C; [6]): 72%
Safety concerns in clinical development (in words) ([3]; torcetrapib, Phase III clinical trials): unexpected increase in cardiovascular events and death

COc1cc(F)c(C(C)C)cc1-c1ccc(C(F)(F)F)cc1CN1C(=O)O[C@H](c2cc(C(F)(F)F)cc(C(F)(F)F)c2)[C@@H]1C [anacetrapib]
Phase III clinical trial outcome (in words) [3]: reduced major cardiovascular events (MACE)
